PubChem BioAssay (NCI)
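GI50 = concentration required for 50% inhibition of growth. TGI is the concentration that stops growth completely.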

Columns and labels:
Experiment in all cases: NCI tumour cell line growth inhibition, 384-well format
786-0 renal = test system: 786-0 renal
A498 renal = test system: A498 renal
A549 NSCLC = test system: A549 NSCLC
BT-549 breast = test system: BT-549 breast
CAKI-1 renal = test system: CAKI-1 renal
CCRF-CEM leukemia = test system: CCRF-CEM leukemia
COLO 205 colon = test system: COLO 205 colon
DU-145 prostate = test system: DU-145 prostate
EKVX NSCLC = test system: EKVX NSCLC
HCC-2998 colon = test system: HCC-2998 colon
HCT-116 colon = test system: HCT-116 colon
HCT-15 colon = test system: HCT-15 colon
HL-60(TB) leukemia = test system: HL-60(TB) leukemia
HOP-62 NSCLC = test system: HOP-62 NSCLC
HOP-92 NSCLC = test system: HOP-92 NSCLC
HS 578T breast = test system: HS 578T breast
HT29 colon = test system: HT29 colon
IGROV1 ovarian = test system: IGROV1 ovarian
K-562 leukemia = test system: K-562 leukemia
KM12 colon = test system: KM12 colon
LOX IMVI melanoma = test system: LOX IMVI melanoma
M14 melanoma = test system: M14 melanoma
MALME-3M melanoma = test system: MALME-3M melanoma
MCF7 breast = test system: MCF7 breast
MDA-MB-231 breast = test system: MDA-MB-231 breast
MDA-MB-435 melanoma = test system: MDA-MB-435 melanoma
MDA-MB-468 breast = test system: MDA-MB-468 breast
MOLT-4 leukemia = test system: MOLT-4 leukemia
NCI-H226 lung = test system: NCI-H226 lung
NCI-H23 lung = test system: NCI-H23 lung
NCI-H322M lung = test system: NCI-H322M lung
NCI-H460 NSCLC = test system: NCI-H460 NSCLC
NCI-H522 lung = test system: NCI-H522 lung
NCI/ADR-RES ovarian = test system: NCI/ADR-RES ovarian
OVCAR-3 ovarian = test system: OVCAR-3 ovarian
OVCAR-4 ovarian = test system: OVCAR-4 ovarian
OVCAR-5 ovarian = test system: OVCAR-5 ovarian
OVCAR-8 ovarian = test system: OVCAR-8 ovarian
PC-3 prostate = test system: PC-3 prostate
RPMI-8226 leukemia = test system: RPMI-8226 leukemia
RXF 393 renal = test system: RXF 393 renal
SF-268 CNS = test system: SF-268 CNS
SF-295 CNS = test system: SF-295 CNS
SF-539 CNS = test system: SF-539 CNS
SK-MEL-2 melanoma = test system: SK-MEL-2 melanoma
SK-MEL-28 melanoma = test system: SK-MEL-28 melanoma
SK-MEL-5 melanoma = test system: SK-MEL-5 melanoma
SK-OV-3 ovarian = test system: SK-OV-3 ovarian
SN12C renal = test system: SN12C renal
SNB-19 CNS = test system: SNB-19 CNS
SNB-75 CNS = test system: SNB-75 CNS
SR leukemia = test system: SR leukemia
SW-620 colon = test system: SW-620 colon
T-47D breast = test system: T-47D breast
TK-10 renal = test system: TK-10 renal
U251 glioblastoma = test system: U251 glioblastoma
UACC-257 melanoma = test system: UACC-257 melanoma
UACC-62 melanoma = test system: UACC-62 melanoma
UO-31 renal = test system: UO-31 renal

CO[C@@H](C)Cn1c(=O)n(C)c2cnc3ccc(-c4cncc(C(C)(C)O)c4)cc3c21
GI50 ([…]-0 renal): 133 nM | TGI (786-0 renal): 4.55 µM | GI50 (A498 renal): 33 nM | TGI (A498 renal): 374 nM | GI50 (A549 NSCLC): 70.7 nM | TGI (A549 NSCLC): 1180 nM | GI50 (BT-549 breast): 96.2 nM | TGI (BT-549 breast): 503 nM | GI50 (CAKI-1 renal): 76.1 nM | TGI (CAKI-1 renal): 485 nM | GI50 (CCRF-CEM leukemia): 77.9 nM | TGI (CCRF-CEM leukemia): 707 nM | GI50 (COLO 205 colon): 186 nM | TGI (COLO 205 colon): 1480 nM | GI50 (DU-145 prostate): 84.6 nM | TGI (DU-145 prostate): 2690 nM | GI50 (EKVX NSCLC): 96.1 nM | TGI (EKVX NSCLC): 885 nM | GI50 (HCC-2998 colon): 188 nM | TGI (HCC-2998 colon): 2110 nM | GI50 (HCT-116 colon): 390 nM | TGI (HCT-116 colon): 1770 nM | GI50 (HCT-15 colon): 154 nM | TGI (HCT-15 colon): 12.5 µM | GI50 (HL-60(TB) leukemia): 463 nM | TGI (HL-60(TB) leukemia): 1610 nM | GI50 (HOP-62 NSCLC): 109 nM | TGI (HOP-62 NSCLC): 1340 nM | GI50 (HOP-92 NSCLC): 150 nM | TGI (HOP-92 NSCLC): 702 nM | GI50 (HS 578T breast): 35.7 nM | TGI (HS 578T breast): 217 nM | GI50 (HT29 colon): 226 nM | TGI (HT29 colon): 11.1 µM | GI50 (IGROV1 ovarian): 35 nM | TGI (IGROV1 ovarian): 173 nM | GI50 (K-562 leukemia): 162 nM | TGI (K-562 leukemia): 11.8 µM | GI50 (KM12 colon): 136 nM | TGI (KM12 colon): 12.9 µM | GI50 (LOX IMVI melanoma): 78.2 nM | TGI (LOX IMVI melanoma): 918 nM | GI50 (M14 melanoma): 151 nM | TGI (M14 melanoma): 1850 nM | GI50 (MALME-3M melanoma): 62.6 nM | TGI (MALME-3M melanoma): 327 nM | GI50 (MCF7 breast): 71.1 nM | TGI (MCF7 breast): 1670 nM | GI50 (MDA-MB-231 breast): 57.1 nM | TGI (MDA-MB-231 breast): 20.6 µM | GI50 (MDA-MB-435 melanoma): 194 nM | TGI (MDA-MB-435 melanoma): 2360 nM | GI50 (MDA-MB-468 breast): 165 nM | TGI (MDA-MB-468 breast): 574 nM | GI50 (MOLT-4 leukemia): 81.2 nM | TGI (MOLT-4 leukemia): 299 nM | GI50 (NCI-H226 lung): 109 nM | TGI (NCI-H226 lung): 667 nM | GI50 (NCI-H23 lung): 319 nM | TGI (NCI-H23 lung): 2600 nM | GI50 (NCI-H322M lung): 139 nM | TGI (NCI-H322M lung): 2300 nM | GI50 (NCI-H460 NSCLC): 45.1 nM | TGI (NCI-H460 NSCLC): 1570 nM | GI50 (NCI-H522 lung): 104 nM | TGI (NCI-H522 lung): 1630 nM | GI50 (NCI/ADR-RES ovarian): 2150 nM | TGI (NCI/ADR-RES ovarian): 15.4 µM | GI50 (OVCAR-3 ovarian): 84.6 nM | TGI (OVCAR-3 ovarian): 894 nM | GI50 (OVCAR-4 ovarian): 126 nM | TGI (OVCAR-4 ovarian): 722 nM | GI50 (OVCAR-5 ovarian): 206 nM | TGI (OVCAR-5 ovarian): 1690 nM | GI50 (OVCAR-8 ovarian): 86.8 nM | TGI (OVCAR-8 ovarian): 11.2 µM | GI50 (PC-3 prostate): 84.2 nM | TGI (PC-3 prostate): 740 nM | GI50 (RPMI-8226 leukemia): 28.2 nM | TGI (RPMI-8226 leukemia): 78.8 nM | GI50 (RXF 393 renal): 54.6 nM | TGI (RXF 393 renal): 1370 nM | GI50 (SF-268 CNS): 293 nM | TGI (SF-268 CNS): 1770 nM | GI50 (SF-295 CNS): 57 nM | TGI (SF-295 CNS): 413 nM | GI50 (SF-539 CNS): 141 nM | TGI (SF-539 CNS): 1970 nM | GI50 (SK-MEL-2 melanoma): 243 nM | TGI (SK-MEL-2 melanoma): 592 nM | GI50 (SK-MEL-28 melanoma): 221 nM | TGI (SK-MEL-28 melanoma): 3.48 µM | GI50 (SK-MEL-5 melanoma): 157 nM | TGI (SK-MEL-5 melanoma): 463 nM | GI50 (SK-OV-3 ovarian): 88.4 nM | TGI (SK-OV-3 ovarian): 1010 nM | GI50 (SN12C renal): 84.9 nM | TGI (SN12C renal): 3.57 µM | GI50 (SNB-19 CNS): 334 nM | TGI (SNB-19 CNS): 12.6 µM | GI50 (SNB-75 CNS): 44 nM | TGI (SNB-75 CNS): 502 nM | GI50 (SR leukemia): 20.2 nM | TGI (SR leukemia): 55 nM | GI50 (SW-620 colon): 197 nM | TGI (SW-620 colon): 1360 nM | GI50 (T-47D breast): 77.1 nM | TGI (T-47D breast): 406 nM | GI50 (TK-10 renal): 220 nM | TGI (TK-10 renal): 907 nM | GI50 (U251 glioblastoma): 221 nM | TGI (U251 glioblastoma): 3.46 µM | GI50 (UACC-257 melanoma): 429 nM | TGI (UACC-257 melanoma): 2700 nM | GI50 (UACC-62 melanoma): 102 nM | TGI (UACC-62 melanoma): 719 nM | GI50 (UO-31 renal): 122 nM | TGI (UO-31 renal): 6.31 µM
